Test system: human embryonic stem cell derived neural stem cells (NSCs)
Experiment: Neurogenesis assay: neural stem cell proliferation assay
Settings: 96 h, compound concentration at which 150% activity of control (100%) is reached, increase in cells based on ATP levels (CellTiterGlo), 4 days incubation, dose response 8 μM to 8 nM
Protocol: Neural Stem Cell Proliferation Assay
Neurogenic properties of small molecules are determined based on the proliferation of human embryonic stem cell derived neural stem cells (NSCs) which were derived via a dual smad inhibition as previously described (Chambers, S. M., et al., Highly efficient neural conversion of human ES and iPS cells by dual inhibition of SMAD signaling, Nature biotechnology, 2009 27(3): p. 275-80.).
Compounds response is measured by the increase in cells based on ATP levels (Promega:CellTiterGlo®) after an incubation period of 4 days. NSCs are thawed and expanded over 3 passages. On the 14th day, NSCs are seeded in Polyornithin/Laminin coated 384 well plates at a cell density of 21,000 cells/cm^2 in a media volume of 38 μl.
4 hours after cell seeding, compound solutions are added at a volume of 2 μl. Stock solutions of the compounds (water, 5% DMSO) are diluted to obtain a dose response (11 points, dilution factor is 2), ranging from 8 μM to 8 nM. Controls are run to consistently determine the neurogenic properties of the cells:
Negative (neutral) control is cell culture Media (final DMSO concentration: 0.25%).
1. cell culture Media+100 ng/ml FGF2 (final DMSO concentration: 0.1%)
2. cell culture Media+20 ng/ml EGF (final DMSO concentration: 0.1%)
3. cell culture Media+100 ng/ml Wnt3a (final DMSO concentration: 0.1%)
After 4 days incubation at 37° C., 5% CO2, the amount of ATP per well is quantified. The ATP concentration is proportional to the cell number. ATP is quantified by using the Promega CellTiterGlo® kit. The CellTiterGlo® reagents contain a cell lysis buffer, a thermo stable luciferase (UltraGlo™ recombinant luciferase), magnesium and luciferin. Luciferin reacts with ATP producing oxyluciferin, AMP and light. The luminescence signal is proportional to the ATP content.
The value of negative (neutral) control is determined for each assay plate by taking the average of 16 negative control wells. The neurogenic compound response is calculated for each compound as (compound/Negative Control)*100. The values of EC150 from the dose response curve are determined for each test compound. The EC150 is the compound concentration at which 150% activity of control (100%) is reached.

Row | SMILES | EC (150% of control)
1 | COc1cc(N2CCN(Cc3ccccc3C)C2=O)ccc1-c1cn[nH]c1 [Example 34, 1-[3-Methoxy-4-(1H-pyrazol-4-yl)phenyl]-3-(o-tolylmethyl)imidazolidin-2-one] | 0.2 µM
2 | COc1cccc(C2CCN(c3ccc(-c4ccncc4)c(OC)c3)C2=O)c1 (centres unmarked) [Example 70, 3-(3-Methoxyphenyl)-1-(3-methoxy-4-pyridin-4-ylphenyl)pyrrolidin-2-one] | 0.0613 µM
3 | COc1cc(N2CCC(c3ccccc3Cl)C2=O)ccc1-c1cnco1 (centres unmarked) [Example 4, 3-(2-Chlorophenyl)-1-(3-methoxy-4-oxazol-5-yl-phenyl)pyrrolidin-2-one] | 0.678 µM
4 | COc1cc(N2CCN(CCc3ccc(Cl)cc3)C2=O)ccc1-c1cn[nH]c1 [Example 50, 1-[2-(4-Chlorophenyl)ethyl]-3-[3-methoxy-4-(1H-pyrazol-4-yl)phenyl]imidazolidin-2-one] | 2.01 µM
5 | COc1cc(N2CCC(c3cccc(Cl)c3)C2=O)ccc1-c1cn[nH]c1 (centres unmarked) [Example 25, 3-(3-Chlorophenyl)-1-(3-methoxy-4-(1H-pyrazol-4-yl)phenyl)pyrrolidin-2-one] | 0.0659 µM
6 | COc1cc(N2CCN(Cc3cccc(C)c3)C2=O)ccc1-c1ccncc1 [Example 65, 1-[3-Methoxy-4-(4-pyridyl)phenyl]-3-(m-tolylmethyl)imidazolidin-2-one] | 0.0298 µM
7 | COc1cccc(CN2CCN(c3ccc(-c4cnco4)c(OC)c3)C2=O)c1 [Example 68, 1-[3-Methoxy-4-(1,3-oxazol-5-yl)phenyl]-3-[(3-methoxyphenyl)methyl]imidazolidin-2-one] | 0.316 µM
8 | COc1cc(N2CCC(Cc3cccc(Cl)c3)C2=O)ccc1-c1cn[nH]c1 (centres unmarked) [Example 36, 3-[(3-Chlorophenyl)methyl]-1-[3-methoxy-4-(1H-pyrazol-4-yl)phenyl]pyrrolidin-2-one] | 1.65 µM
9 | COc1cccc(CN2CCN(c3ccc(-c4cn[nH]c4)c(C)c3)C2=O)c1 [Example 28, 1-[(3-Methoxyphenyl)methyl]-3-[3-methyl-4-(1H-pyrazol-4-yl)phenyl]imidazolidin-2-one] | 1.22 µM
10 | COc1cccc(C2CCN(c3ccc(-c4cnco4)c(OC)c3)C2=O)c1 (centres unmarked) [Example 3, 1-(3-Methoxy-4-oxazol-5-yl-phenyl)-3-(3-methoxyphenyl)pyrrolidin-2-one] | 0.0814 µM
11 | CCOc1cc(N2CCN(Cc3cccc(OC)c3)C2=O)ccc1-c1cn[nH]c1 [Example 32, 1-[3-Ethoxy-4-(1H-pyrazol-4-yl)phenyl]-3-[(3-methoxyphenyl)methyl]imidazolidin-2-one] | 0.835 µM
12 | COc1cc(N2CCC(c3cccc(C(F)(F)F)c3)C2=O)ccc1-c1cnco1 (centres unmarked) [Example 56, 1-[3-Methoxy-4-(1,3-oxazol-5-yl)phenyl]-3-[3-(trifluoromethyl)phenyl]pyrrolidin-2-one] | 1.86 µM
13 | COc1cc(N2CCC(Cc3ccccc3Cl)C2=O)ccc1-c1cn[nH]c1 (centres unmarked) [Example 37, 3-[(2-Chlorophenyl)methyl]-1-[3-methoxy-4-(1H-pyrazol-4-yl)phenyl]pyrrolidin-2-one] | 1.13 µM
14 | O=C1C(c2ccccc2F)CCN1c1ccc(-c2cnco2)cc1 (centres unmarked) [Example 57, 3-(2-Fluorophenyl)-1-[4-(1,3-oxazol-5-yl)phenyl]pyrrolidin-2-one] | 0.525 µM
15 | CCC1(c2ccccc2)CCN(c2ccc(-c3cnco3)c(OC)c2)C1=O (centres unmarked) [Example 1, 3-Ethyl-1-(3-methoxy-4-(oxazol-5-yl)phenyl)-3-phenylpyrrolidin-2-one] | 3.23 µM
16 | COc1cccc(CN2CCN(c3ccc(-c4cn[nH]c4)cc3F)C2=O)c1 [Example 30, 1-[2-Fluoro-4-(1H-pyrazol-4-yl)phenyl]-3-[(3-methoxyphenyl)methyl]imidazolidin-2-one] | 0.0416 µM
17 | O=C1N(Cc2ccccc2F)CCN1c1ccc(-c2cnco2)cc1 [Example 73, 1-[(2-Fluorophenyl)methyl]-3-[4-(1,3-oxazol-5-yl)phenyl]imidazolidin-2-one] | 1.49 µM
